Test results as given in patent US5837548A, “Treatment of inflammation by inhibition of lipid body formation” (Beth Israel Hospital, priority 1995, dated 1998).

Key:
Format in all cases: cell-based
[1] = tested on: human neutrophils (LTB4 production); assay: LTB4 production by human neutrophils (priming, A23187 stimulation, ELISA)
Description: (§1) FIG. 1A is a graph illustrating the effect of arachidonic acid (AA) and oleic acid (OA) on induction of lipid body formation (black) and priming effects (white) for enhanced leukotriene B4 (LTB4) by human neutrophils. Neutrophils (10^6 /mL) were stimulated for one hour with arachidonic acid (3.7, 7.5, 15 μM) or oleic acid (2.5, 5, 10 μM). Lipid bodies were enumerated using light microscopy following osmium staining. The concentration of LTB4 in the supernatant was measured by ELISA after incubation with A23187 (0.5 μM) for 15 minutes at 37° C. Data are expressed as mean from 2-3 independent assays performed in duplicate.
(§2) FIG. 5A is a graph showing that aspirin inhibits cis-unsaturated fatty acid-induced priming for enhanced leukotriene B4 (LTB4) production in human neutrophils. Striped and open columns represent vehicle treated cells and aspirin treated cells, respectively. Cells (10^6 /mL) were pretreated with aspirin (10 μg/mL) or vehicle for one hour and then stimulated with OA (10 μM) or vehicle for one hour. The concentration of LTB4 in the supernatant was measured by ELISA after incubation with A23187 (0.5 μM) for 15 minutes at 37° C. Data are expressed as mean from 2-4 independent assays performed in duplicate. The statistically significant difference between the vehicle alone and the agonist is represented by a cross. Statistically significant differences due to pretreatment with aspirin are indicated by an asterisk.
(§3) After the incubation time, a sample was taken for lipid body enumeration and the cells were washed in Ca^++ /Mg^++ free HBSS. Leukocytes were resuspended in 1 mL of HBSS containing Ca^++ /Mg^++ and then stimulated with A23187 (0.5 μM) for 15 min. The reaction was stopped on ice, and the samples were centrifuged at 1500 rpm for 10 min at 4° C. The concentrations of PGE2, LTB4, and LTC4 in the supernatants were assayed by ELISA according to the manufacturer's instructions (Cayman, Ann Arbor, Mich.).

[2] = tested on: human eosinophils (LTC4 production); assay: LTC4 production by human eosinophils (priming, A23187 stimulation, ELISA)
Description: as §1, with “2A” for “1A”, “C4 (LTC4)” for “B4 (LTB4)”, “eosinophils. Eosinophils” for “neutrophils. Neutrophils”, “LTC4” for “LTB4”, “2” for “2-3”
as §2, with “5B” for “5A”, “C4 (LTC4)” for “B4 (LTB4)”, “eosinophils.” for “neutrophils.”, “LTC4” for “LTB4”
as §3

[3] = tested on: human neutrophils (PGE2 production); assay: PGE2 production by human neutrophils (priming, A23187 stimulation, ELISA)
Description: FIG. 1B is a graph showing the effect of arachidonic acid (AA) and oleic acid (OA) on lipid body induction (black) and priming for enhanced prostaglandin E2 (PGE2) production (white) by human neutrophils. Neutrophils (10^6 /mL) were stimulated for one hour with arachidonic acid (3.7, 7.5, 15 μM) or oleic acid (2.5, 5, 10 μM). Lipid bodies were enumerated using light microscopy following osmium staining. The concentration of PGE2 in the supernatant was measured by ELISA after incubation with A23187 (0.5 μM) for 15 minutes at 37° C. Data are expressed as mean from 2-3 independent assays performed in duplicate.
as §3

human eosinophils = assay: cis-unsaturated fatty acid-induced lipid body formation in human eosinophils
Description: Vehicle alone is represented by the dark columns. AA and OA are represented by the striped and gray columns, respectively. Agonist plus the pretreatment with aspirin is represented by the cross-hatched columns. Cells (10^6 /mL) were pretreated with aspirin (10 μg/mL) or vehicle for one hour and then stimulated arachidonic acid (15 μM), oleic acid (10 μM) or vehicle for one hour. Lipid bodies were enumerated by light microscopy following osmium staining. Each point represents the mean±SEM from fifty consecutively counted cells. The statistically significant difference between the vehicle alone and the agonist is represented by a cross. Statistically significant differences due to pretreatment with aspirin are indicated by an asterisk.
Neutrophils were purified from fresh human blood obtained by venipuncture from healthy adult volunteers and collected into acidified citrate. After addition of 6% dextran 70 (McGaw, Irvine, Calif.), RBCs were allowed to sediment for 1 hour at room temperature. The leukocyte-rich supernatant was overlaid onto an equal volume of Ficoll-Paque gradient (Piscataway, N.J.), and centrifuged at 400×g for 20 min. PMNs (>95% pure, rest being eosinophils) were recovered from the pellet and washed in Ca^++ /Mg^++ free HBSS. Residual RBCs were lysed with hypotonic saline. Eosinophils (80% pure, the rest being neutrophils) were obtained from a donor with idiopathic hypereosinophilic syndrome using the same procedure as described above.
Human leukocytes (10^6 cells/mL) were incubated with varying concentrations of arachidonic acid (AA), oleic acid (OA) or vehicle at 37° C. in a 5% CO2 /95% O2 atmosphere, and after 1 hour leukocytes (10^5 cells per slide) were cytocentrifuged (550 rpm, 5 min) onto glass slides. During inhibitory studies, neutrophils were pretreated for 1 hour with varying concentrations of enzyme inhibitors, protein synthesis inhibitors, or vehicle as indicated. When PKC inhibitors were used, the pre-incubation time was reduced to 30 minutes to avoid toxic effects to the cells. The cell viability, determined by trypan blue dye exclusion at the end of each experiment, was always greater than 90%. Stock solutions for A23187, D609, U-73122, and indomethacin were prepared in DMSO and stored at -20° C. Aliquots were diluted in Ca^++ /Mg^++ fee HBSS to the indicated concentration immediately prior to use. […]
Results were expressed as mean±SEM and were analyzed statistically by means of the analysis of variance followed by the Newman-Keuls-Student test with the level of significance set at p<0.05. Correlation coefficients were determined by linear regression, and correlation analysis was performed by Fisher's r to z transformation with the level of significance set at p<0.05.

[4] = Homo sapiens, Neutrophil, 1 h, read-out: fold increase in production of LTB4
[5] = Homo sapiens, Eosinophil, 1 h, read-out: fold increase in production of LTC4
[6] = Homo sapiens, Neutrophil, 1 h, read-out: fold increase in production of PGE2
[7] = cells not pre-stimulated with cis-unsaturated fatty acids

| SMILES | fold induction at 15 µM [1, 4] | increase in production of LTB4 ([1]; neutrophils) | fold induction at 15 µM [2, 5] | increase in production of LTC4 ([2]; eosinophils) | fold induction at 15 µM [3, 6] | increase in production of PGE2 ([3]; neutrophils) | increase in number of lipid bodies (human eosinophils) | inhibition of calcium ionophore-induced LTB4 production [1, 7] | inhibition of oleic acid-induced priming for enhanced LTB4 production ([1]; neutrophils, 10 μg/mL, OA 10 μM) | inhibition of calcium ionophore-induced LTC4 production [2, 7] | inhibition of oleic acid-induced priming for enhanced LTC4 production ([2]; eosinophils, 10 μg/mL, OA 10 μM) | inhibition of PGE2 production ([3]; neutrophils, 10 μg/mL pretreatment) | inhibition of arachidonic acid-induced lipid body formation (human eosinophils; 10 μg/mL) | inhibition of oleic acid-induced lipid body formation (human eosinophils; 10 μg/mL) | fold induction at 10 µM [1, 4] | correlation (r) between number of lipid bodies and priming for enhanced LTB4 release ([1]; oleic acid, leukocytes, p<0.05) | fold induction at 10 µM [2, 5] | correlation (r) between number of lipid bodies and priming for enhanced LTC4 release ([2]; oleic acid, leukocytes, p<0.05) | fold induction at 10 µM [3, 6] | correlation (r) between number of lipid bodies and priming for enhanced PGE2 release ([3]; oleic acid, leukocytes, p<0.01) |
| --- | --- | --- | --- | --- | --- | --- | --- | --- | --- | --- | --- | --- | --- | --- | --- | --- | --- | --- | --- | --- |
| CCCCC/C=C\C/C=C\C/C=C\C/C=C\CCCC(=O)O [arachidonic acid] | 2.3 | dose-dependent increase in production | 1.4 | dose-dependent increase in production | 3.5 | dose-dependent increase in production | dose-dependent increase in the number of lipid bodies | – | – | – | – | – | – | – | – | – | – | – | – | – |
| CC(=O)Oc1ccccc1C(=O)O [aspirin] | – | – | – | – | – | – | – | failed to inhibit | significantly inhibited | failed to inhibit | significantly inhibited | inhibited PGE2 production | significantly inhibited | significantly inhibited | – | – | – | – | – | – |
| CCCCCCCC/C=C\CCCCCCCC(=O)O [oleic acid] | – | dose-dependent increase in production | – | dose-dependent increase in production | – | dose-dependent increase in production | dose-dependent increase in the number of lipid bodies | – | – | – | – | – | – | – | 2 | 0.96 | 1.7 | 0.95 | 2 | 0.99 |
